Data set [1] is described as follows: AUC (0 to 24 hrs) in rat at 5 mg/kg, po. The format is ADME, organism-based. Details: time < 24 hr, route oral, dose 5 mg/kg. The note with it: in vivo.
Data set [2] can be described thus: AUC in rat at 5 mg/kg, po or 1 mg/kg, iv. The following applies: in vivo. More on the design: dose 5 mg/kg. It is filed as ADME, organism-based.
Data set [3] in a line: Clearance in dog at 3 mg/kg, po or 1 mg/kg, iv. It is filed as ADME, organism-based, Canis lupus familiaris. The following applies: in vivo.
The nature of data set [4]: Clearance in cynomolgus monkey at 3 mg/kg, po or 1 mg/kg, iv. It is filed as ADME, organism-based, Macaca fascicularis. The following applies: in vivo.
The nature of data set [5]: Inhibition of HCV 2a NS3/4A protease. Details: species or system Hepatitis C virus subtype 2a.
Data set [6] is described as follows: Inhibition of HCV 4a NS3/4A protease. Details: species or system Hepatitis C virus subtype 4a.
Data set [7] in a line: Inhibition of HCV 3a NS3/4A protease preincubated for 45 mins in presence of compound. More on the design: species or system Hepatitis C virus subtype 3a.
The nature of data set [8]: Inhibition of HCV 6a NS3/4A protease preincubated for 45 mins in presence of compound. More on the design: species or system Hepatitis C virus subtype 6a.
Data set [9] in a line: Selectivity index, ratio of IC50 for inhibition of HCV 1a NS3/4A protease to IC50 for inhibition of HCV 1a NS3/4A protease preincubated for 45 mins in presence of compound.
Data set [10] is described as follows: Selectivity index, ratio of IC50 for inhibition of HCV 5a NS3/4A protease to IC50 for inhibition of HCV 5a NS3/4A protease preincubated for 45 mins in presence of compound.
Data set [11] in a line: Selectivity index, ratio of IC50 for inhibition of HCV 6a NS3/4A protease to IC50 for inhibition of HCV 6a NS3/4A protease preincubated for 45 mins in presence of compound.
Data set [12] deals with T1, Cytochrome P450 3A4 (Homo sapiens, UniProt P08684). Briefly: Inhibition of human CYP3A4 in human pooled liver microsomes at 0.002 to 40 uM in presence of midazolam as substrate preincubated in presence of NADPH followed by addition of substrate by LC-MS/MS analysis. It is filed as ADME. The following applies: TDE = time-dependent effect, dose 0.002-40 µM, time <=30 min. For orientation: Liver microsomes are vesicles of endoplasmic reticulum, rich in cytochrome P450 enzymes.
T1 sequence (P08684 whole entry): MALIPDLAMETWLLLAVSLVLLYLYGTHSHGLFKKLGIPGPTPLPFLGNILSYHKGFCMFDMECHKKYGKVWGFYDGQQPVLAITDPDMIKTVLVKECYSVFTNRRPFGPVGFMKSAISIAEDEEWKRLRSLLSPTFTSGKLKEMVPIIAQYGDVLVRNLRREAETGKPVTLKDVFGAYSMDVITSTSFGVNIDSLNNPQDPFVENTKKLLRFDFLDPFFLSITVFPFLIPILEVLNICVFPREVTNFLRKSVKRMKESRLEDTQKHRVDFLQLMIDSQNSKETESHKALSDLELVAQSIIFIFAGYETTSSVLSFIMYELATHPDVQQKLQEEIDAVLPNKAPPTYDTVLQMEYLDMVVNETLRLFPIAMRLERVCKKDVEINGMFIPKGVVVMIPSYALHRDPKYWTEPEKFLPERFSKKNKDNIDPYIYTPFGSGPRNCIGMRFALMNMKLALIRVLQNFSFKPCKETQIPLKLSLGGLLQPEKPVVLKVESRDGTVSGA

The target of data set [13] is T1, Cytochrome P450 3A4. The data set is described as follows: Inhibition of human CYP3A4 in human pooled liver microsomes in presence of testosterone as substrate preincubated for 30 mins in presence of NADPH followed by addition of substrate by LC-MS/MS analysis. It is filed as ADME.

For orientation: AUC(0-t) means exposure summed from dosing to a finite time, without extrapolation to infinity. Broadly, the AUC is the area under the concentration-time curve, a measure of exposure. By IC50 is commonly meant the concentration that gives 50% inhibition. On to `CC[C@@H]1C[C@H](C)CC/C=C\[C@@H]2C[C@@]2(C(=O)NS(=O)(=O)C2(C)CC2)NC(=O)[C@@H]2C[C@@H](Oc3nccc4cc(OC)c(F)cc34)CN2C(=O)[C@H]1NC(=O)OC(C)(C)C(F)(F)F`, for which the AUC(0-t) at 24 h in data set [1] was 151 µM·h. The compound also registered an AUC in [2] of 241 µM·h. Further, the values for the clearance in data set [3] and in data set [4] were 0.3 mL/min/kg and 9.3 mL/min/kg, respectively. The IC50 in data set [5] is 0.7 nM; in [6], 0.9 nM; in [7], 7.5 nM; in data set [8], 0.1 nM; on Cytochrome P450 3A4 [13] it was 3020 nM. The Selectivity Index was 4 in data set [9], 10 in data set [10] and 6 in data set [11]. The “inhibition (INH)” value at Cytochrome P450 3A4 [12] is recorded as “Tde”.
